Results published in paper PMC10147923, “Pain-causing stinging nettle toxins target TMEM233 to modulate NaV1.7 function” (Nature Communications, 2023).
“And” between values parts separate entries of the source, which are not always exact repeats. Identical values can stand only once. Like-named read-outs stand apart in the source and are kept apart here. Positions of bridges follow the written chain, without caps; N, C: chain ends. Residues, ends and D or L forms follow the SMILES beside them.

Assays:
NaV1.7/TMEM233 = NaV1.7/TMEM233 (Homo sapiens, UniProt B4DJY2+Q15858); type: cell-based; settings: extracellular ExTxA
Description: To determine recovery from fast inactivation, a 20 ms pulse to 0 mV from a holding potential of −90 mV was used to induce fast inactivation. A subsequent recovery period, ranging from 1 ms to 2216 ms in 50% increments at −90 mV, was followed by a last 20 ms test pulses to 0 mV to determine the time-dependence of recovery from fast inactivation. The proportion of available channels was determined by normalizing peak currents from the last to the first pulse. A two-phase exponential equation was fit to the normalized current, plotted as a function of time, to determine the time constants τ1 and τ2 of recovery from fast inactivation.

NaV1.7/PRRT2 = NaV1.7/PRRT2 (Homo sapiens, UniProt Q15858+Q7Z6L0); type: cell-based
hNaV1.7 [1] = type: cell-based, human
NaV1.9 = type: cell-based, mouse
TE-671 cells = settings: ExTxA 1 µM + veratridine 5 µM + ouabain 20 nM
[2] = system: DRG neurons from wild-type C57BL/6 mice; test: Calcium imaging, wild-type DRG neurons; type: cell-based, mouse
Description: DRG from all spinal levels were isolated from male and female mice (wild-type C57BL/6 J, Tmem233^Cre/Cre, NaV1.8^Cre/Cre, NaV1.9^−/− or littermate controls) as previously described[36],[38],[39]. For Ca^2+ imaging experiments, DRG neurons were dissociated following incubation with 1% collagenase type IV (Worthington, New Jersey, USA) for 1.5 h (37 °C, 5% CO2) and 2.5% trypsin (Sigma-Aldrich, Montana, USA) for 15 min and resuspended in Dulbecco’s modified Eagle’s medium (DMEM) (Sigma-Aldrich, New South Wales, Australia) supplemented with 10% fetal bovine serum (FBS) (Thermofisher, Massachusetts, USA) and penicillin/streptomycin (Thermofisher, Massachusetts, USA). Following plating in 96-well poly-D-lysine–coated culture plates, isolated neurons were incubated for 24 h at 37 °C with 5% CO2 prior to imaging.
Dissociated DRG neurons from Tmem233^Cre/Cre and C57BL/6 mice were plated on PDL-coated 96-well black-walled imaging plates and loaded with Fluo-4 AM calcium indicator (5 μM) (Invitrogen, Massachusetts, USA) for 1 h in culture medium. Cells were washed with Hanks’ balanced salt solution containing 20 mM HEPES and then transferred to the recording chamber of a Nikon Ti-E Deconvolution inverted microscope equipped with a Lumencor Spectra LED light source. Fluorescence images (excitation, 485 nm; emission, 521 nm) were acquired at 1 frame per second using a ×20 objective. Following the recording of baseline fluorescence (20 s), cells were consecutively exposed to buffer control (0.1% BSA, t = 30 s), ExTxA (10 nM, t = 60 s), and 30 mM KCl (30 mM, t = 210 s). […] Cells responding to buffer control were excluded from analysis.

[3] = system: total and TTX-s NaV current in wild-type DRG neurons; test: Persistent total NaV current, manual patch clamp, mouse DRG neurons; type: cell-based
hNaV1.6 = test: Persistent current, HEK293-hNaV1.6/β1; type: cell-based, human; settings: ExTxA 1 µM; individual cells
[4] = system: NaV currents in SH-SY5Y cells; test: Persistent current, SH-SY5Y cells; type: cell-based, human; settings: ExTxA 1 µM
hNaV1.7 [5] = test: Persistent current, CHO hNaV1.7, no β subunit; type: cell-based, human; settings: ExTxA 1 µM
hNaV1.1 = test: Persistent current, HEK293-hNaV1.1/β1; type: cell-based, human; settings: ExTxA 1 µM; individual cells
hNaV1.7/β1 = test: Persistent current, CHO hNaV1.7/β1; type: cell-based, human; settings: ExTxA 1 µM, mean, n = 11
[6] = NMR of 15N-labelled ExTxA with dodecylphosphocholine micelles; type: binding; settings: 1H-15N TROSY, 30 µM peptide, 20 mM Tris pH 8, 50 mM NaCl, 10% DPC, 298 K
Description: For NMR analysis, lyophilized ^15N-labelled ExTxA was resuspended either in 40% deuterated acetonitrile or buffer containing 20 mM Tris pH 8, 50 mM NaCl, 10% (w/v) dodecylphosphocholine (DPC) and 5% D2O. ^1H-^15N transverse relaxation optimized spectroscopy (TROSY) spectra were acquired for the peptide samples (30 µM) on a Bruker Avance 900 MHz NMR spectrometer equipped with a triple resonance cryogenic probe at 298 K. The spectra were processed using TOPSPIN v4.1.4 software (Bruker, Massachusetts, USA).

hNaV1.8 = test: Persistent current, CHO-hNaV1.8/β3; type: cell-based, human; settings: ExTxA 1 µM

NaV1.7/PRRT2, sequence (Q7Z6L0 whole entry): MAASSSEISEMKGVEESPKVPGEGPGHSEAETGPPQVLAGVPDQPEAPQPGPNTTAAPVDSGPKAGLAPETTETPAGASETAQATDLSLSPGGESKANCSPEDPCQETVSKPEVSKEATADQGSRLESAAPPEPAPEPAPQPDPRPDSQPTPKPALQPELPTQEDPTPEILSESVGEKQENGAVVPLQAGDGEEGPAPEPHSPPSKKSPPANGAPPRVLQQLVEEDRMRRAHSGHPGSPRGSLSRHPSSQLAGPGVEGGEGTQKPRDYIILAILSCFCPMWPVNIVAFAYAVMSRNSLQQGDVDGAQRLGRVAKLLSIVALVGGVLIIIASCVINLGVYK
NaV1.7/PRRT2, sequence (Q07699 19-218, further chain): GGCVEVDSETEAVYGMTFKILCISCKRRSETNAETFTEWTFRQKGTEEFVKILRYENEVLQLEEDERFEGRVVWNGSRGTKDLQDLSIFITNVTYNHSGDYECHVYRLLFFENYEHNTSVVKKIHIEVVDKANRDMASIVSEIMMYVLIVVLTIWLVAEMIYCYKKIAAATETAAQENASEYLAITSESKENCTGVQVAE
NaV1.7/PRRT2, sequence (Q15858 whole entry): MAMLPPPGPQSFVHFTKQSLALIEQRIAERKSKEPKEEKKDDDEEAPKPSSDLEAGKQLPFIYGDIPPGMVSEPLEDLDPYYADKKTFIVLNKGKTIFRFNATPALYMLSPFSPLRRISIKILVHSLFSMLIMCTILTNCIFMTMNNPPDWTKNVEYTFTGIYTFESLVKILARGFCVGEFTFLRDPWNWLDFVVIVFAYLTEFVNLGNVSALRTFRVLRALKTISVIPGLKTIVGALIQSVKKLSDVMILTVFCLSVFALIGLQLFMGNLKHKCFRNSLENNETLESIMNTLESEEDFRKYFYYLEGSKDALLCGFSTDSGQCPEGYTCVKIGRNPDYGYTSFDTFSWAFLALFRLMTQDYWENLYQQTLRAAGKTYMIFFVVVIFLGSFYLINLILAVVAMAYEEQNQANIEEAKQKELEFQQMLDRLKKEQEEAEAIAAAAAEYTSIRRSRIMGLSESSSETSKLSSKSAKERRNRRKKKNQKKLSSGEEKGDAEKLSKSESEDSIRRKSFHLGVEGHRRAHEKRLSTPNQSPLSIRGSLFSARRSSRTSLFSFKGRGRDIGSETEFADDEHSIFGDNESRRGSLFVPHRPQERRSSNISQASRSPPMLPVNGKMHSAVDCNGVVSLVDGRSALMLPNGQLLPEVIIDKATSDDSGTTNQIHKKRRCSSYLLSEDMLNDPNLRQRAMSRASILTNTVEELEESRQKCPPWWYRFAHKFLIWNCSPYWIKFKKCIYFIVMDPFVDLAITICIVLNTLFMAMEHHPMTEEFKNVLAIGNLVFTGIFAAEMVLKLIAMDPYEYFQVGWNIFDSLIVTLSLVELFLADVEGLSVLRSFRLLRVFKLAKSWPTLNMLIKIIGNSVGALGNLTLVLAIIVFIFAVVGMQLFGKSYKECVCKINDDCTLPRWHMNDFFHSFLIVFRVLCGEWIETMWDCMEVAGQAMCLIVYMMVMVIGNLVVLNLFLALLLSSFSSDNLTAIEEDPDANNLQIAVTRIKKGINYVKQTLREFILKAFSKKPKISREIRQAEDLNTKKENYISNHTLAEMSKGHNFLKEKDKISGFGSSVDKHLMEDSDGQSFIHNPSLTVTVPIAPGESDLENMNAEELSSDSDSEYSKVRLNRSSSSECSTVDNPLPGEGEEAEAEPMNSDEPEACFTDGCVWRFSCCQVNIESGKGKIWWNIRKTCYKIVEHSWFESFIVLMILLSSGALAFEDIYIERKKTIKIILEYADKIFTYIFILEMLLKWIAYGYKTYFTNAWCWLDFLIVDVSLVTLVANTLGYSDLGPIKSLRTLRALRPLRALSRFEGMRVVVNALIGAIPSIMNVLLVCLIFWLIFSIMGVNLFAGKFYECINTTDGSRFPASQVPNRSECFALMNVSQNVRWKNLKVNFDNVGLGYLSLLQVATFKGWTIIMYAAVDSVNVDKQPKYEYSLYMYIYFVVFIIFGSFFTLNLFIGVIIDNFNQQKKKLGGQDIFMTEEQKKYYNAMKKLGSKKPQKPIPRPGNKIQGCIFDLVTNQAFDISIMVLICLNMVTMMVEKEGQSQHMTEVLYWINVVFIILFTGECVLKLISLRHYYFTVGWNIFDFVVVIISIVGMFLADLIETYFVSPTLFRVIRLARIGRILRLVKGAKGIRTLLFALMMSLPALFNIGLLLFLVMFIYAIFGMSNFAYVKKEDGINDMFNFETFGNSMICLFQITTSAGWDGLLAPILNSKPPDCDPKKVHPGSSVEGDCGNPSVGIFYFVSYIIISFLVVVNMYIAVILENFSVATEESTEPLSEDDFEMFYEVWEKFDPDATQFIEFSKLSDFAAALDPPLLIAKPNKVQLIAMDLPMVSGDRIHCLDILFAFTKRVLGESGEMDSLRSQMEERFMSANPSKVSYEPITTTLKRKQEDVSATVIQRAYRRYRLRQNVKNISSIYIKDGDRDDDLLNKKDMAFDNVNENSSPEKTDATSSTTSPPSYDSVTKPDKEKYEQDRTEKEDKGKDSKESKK

SMILES: CC[C@H](C)[C@@H]1NC(=O)[C@H](CCCNC(=N)N)NC(=O)[C@H](Cc2ccccc2)NC(=O)[C@H](CC(C)C)NC(=O)[C@H](CO)NC(=O)[C@@H]2CSSC[C@@H]3NC(=O)[C@H]([C@@H](C)O)NC(=O)[C@H](CSSC[C@H](NC(=O)[C@H](CCCNC(=N)N)NC(=O)[C@@H]4CCCN4C(=O)[C@@H](N)CC(C)C)C(=O)N[C@@H](CC(=O)O)C(=O)N[C@@H](CO)C(=O)N4CCC[C@H]4C(=O)N[C@@H](Cc4ccccc4)C(=O)N2)NC(=O)[C@H](CCCCN)NC(=O)[C@H](CC(=O)O)NC(=O)CNC(=O)[C@H](CSSC[C@@H](C(=O)N[C@H](C(=O)N2CCC[C@H]2C(=O)N[C@@H](CC(=O)O)C(=O)N[C@H](C(=O)O)C(C)C)C(C)C)NC(=O)[C@H](CC(C)C)NC(=O)CNC(=O)[C@H](Cc2ccccc2)NC(=O)[C@H]([C@@H](C)CC)NC(=O)[C@@H]2CCCN2C(=O)[C@H](CC(C)C)NC(=O)[C@@H]2CCCN2C(=O)[C@H](C(C)C)NC3=O)NC(=O)[C@H](CC(C)C)NC(=O)CNC1=O [ExTxA, excelsatoxin A] (H-LPRCDSPFCSLFRIGLCGDKCTCVPLPIFGLCVPDV-OH; disulfide 4-21, 9-23, 17-32)
- time constants of recovery from inactivation (NaV1.7/TMEM233): a decrease in the time constants of recovery from inactivation
- LogEC50 (NaV1.7/PRRT2; Nav1.7/PRRT2, 95% CI -6.892 to -6.214, Fig 4g): -6.331
- HillSlope (NaV1.7/PRRT2; Nav1.7/PRRT2, Fig 4g): 0.9384
- Top (NaV1.7/PRRT2; Nav1.7/PRRT2, best-fit, constraint Top < 1, Fig 4g): 0.7711
- ExTxA-induced currents with PRRT2 (NaV1.7/PRRT2; co-expression with NaV1.7): resulted in ExTxA-induced persistent currents
- persistent current, Predicted (LS) mean diff. (hNaV1.7 [1]): -0.04169
- persistent current (I40 ms/Ipeak) (hNaV1.7 [1]; ExTxA 100 nM in ECS, mean ± SEM, n = 10): 0.04 ± 0.014
- persistent current (I40 ms/Ipeak) (hNaV1.7 [1]; ExTxA 100 nM in ICS, mean ± SEM, n = 10): -0.002 ± 0.004
- persistent current (hNaV1.7 [1]; ExTxA 1 µM, HEK NaV1.7/β1, individual cells): -10.167 pA and -21.3045 pA and 17.0051 pA and 11.4493 pA and -20.8771 pA and -5.293 pA and -9.443 pA and -10.0671 pA and 5.003 pA and -11.1496 pA and -2.37 pA
- persistent current (I40 ms/Ipeak) (hNaV1.7 [1]; ExTxA 1 µM, individual cells): -0.00096 and -0.00393 and -0.00509 and -0.00016 and 0.00507 and -0.00078 and -0.00158 and -0.00022 and -9.8e-6 and 0.000228 and 0.002683
- DRG NaV1.9 Δ persistent current (I90 ms/Ipeak) (NaV1.9): -0.057 ± 0.028
- effect of gene knockdown on ExTxA cytotoxicity (TE-671 cells): prevented by the knockdown of SCN9A (the gene encoding the NaV1.7 α subunit) as well as ten other genes (RNF121, GPAA1, PIGT, CRELD1, PIGK, STT3B, TMEM233, PIGS, MMGT1, and LMAN2L), and exacerbated by knockdown of SPAG5, TMEM161B and NEDD4L
- ExTxA-induced DRG Ca2+ responses ([2]; ExTxA 10 nM, wt, Fluo-4, >1.5-fold increase, mean ± SEM, n = 10 wells): 53.20 ± 1.789 % neurons activated
- calcium imaging response (Fig. 3f) ([2]; WT, individual values, one line each (n = 10)): 51.5152 and 56.8182 and 58.0645 and 43.75 and 44.8276 and 50.7042 and 59.292 and 51.8519
- calcium imaging response (Fig. 3f), Mean ([2]; WT, mean, number of values 10, Std. Deviation 5.657, SEM 1.789): 53.2
- calcium imaging response (Fig. 3f), Median ([2]; WT, median, number of values 10): 53.9
- DRG total persistent NaV current (I40 ms/Ipeak) ([3]; ExTxA 100 nM in 0.1% BSA, depolarization to -20 mV from -90 mV, mean, n = 6): 0.513 ± 0.10 and 0.5133
- Mean Diff. of persistent current, Control vs. ExTxA ([3]; ExTxA 100 nM, Tukey's multiple comparisons): -0.4859
- DRG total persistent NaV current (I40 ms/Ipeak) ([3]; ExTxA 100 nM, individual cells, one line per cell): 0.842 and 0.3774 and 0.8283 and 0.3793 and 0.3284 and 0.3245
- persistent current (I40 ms/Ipeak) (hNaV1.6): -0.07037 and 0.003531 and 0.01691 and 0.001263 and 0.000702 and -0.00068 and -0.03041 and 0.01768
- persistent current (I40 ms/Ipeak) ([4]; individual cells): -0.02037 and -0.04756 and 0.0447 and 0.01578 and 0.03746
- Δ persistent current (I40 ms/Ipeak; buffer cf. ExTxA) ([4]; mean): 0.006 ± 0.0175 and 0.006003
- CHO cells persistent current (I40 ms) (hNaV1.7 [5]; hNaV1.7 alone, mean ± SEM, n = 6): 0.000 ± 0.002 nA
- Δ persistent current (I40 ms/Ipeak) in CHO hNaV1.7 (hNaV1.7 [5]; no β subunit, mean, n = 12): 0.001 ± 0.004 and 0.0009513
- persistent current (I40 ms/Ipeak) (hNaV1.1): 0.000881 and 0.001374 and 0.002237 and -0.03938 and -0.00046 and -0.00216 and -0.00201 and 0.01125 and 0.00618 and -0.00021 and -0.01358
- Δ persistent current (I40 ms/Ipeak) in CHO hNaV1.7 (hNaV1.7/β1): 0.0001 ± 0.001 and 0.0001365
- association with dodecylphosphocholine micelles [6]: associates with dodecylphosphocholine micelles
- persistent current (I40 ms/Ipeak) (hNaV1.8; individual cells): 0.04156 and 0.003935 and 0.01946 and 0.03094 and 0.03913 and 0.02554
- Δ persistent current (I40 ms/Ipeak; buffer cf. ExTxA) (hNaV1.8; mean): 0.027 ± 0.0057 and 0.02676
